# According to PubChem BioAssay AID1963977 (Molecular Pharmacology Branch, DTP, NCI, 2024):
# System: 624824-186-R-J3-PDC multicell spheroids, viability
# Assay: Anticancer human tumor 624824-186-R-J3-PDC patient-derived colon adenocarcinoma cell line growth inhibition [PI3K]
# Conditions: for IC50: curve of first compound; for viability, T/C: stronger effect = lower value
# Summary of the method: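 Viability of mixed-cell spheroids was determined after exposure to pairwise combinations, one partner being inavolisib, alpelisib, duvelisib or copanlisib. Highest tested concentration matched clinical Cmax where known and 10 microM where not, descending in half-log steps.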
# [1] = second compound 0.00316 µM, first compound 0.0316 µM
# [2] = second compound 0.00316 µM, first compound 0.1 µM
# [3] = second compound 0.01 µM, first compound 0.0316 µM
# [4] = second compound 0.01 µM, first compound 0.1 µM
# [5] = second compound 0.0316 µM, first compound 0.0316 µM
# [6] = second compound 0.0316 µM, first compound 0.1 µM
# [7] = second compound 0.1 µM, first compound 0.0316 µM
# [8] = second compound 0.1 µM, first compound 0.1 µM
# [9] = second compound 0.316 µM, first compound 0.0316 µM
# [10] = second compound 0.316 µM, first compound 0.1 µM
# [11] = second compound 1 µM, first compound 0.0316 µM
# [12] = second compound 1 µM, first compound 0.1 µM
# [13] = second compound 0.0316 µM, first compound 0.316 µM
# [14] = second compound 0.0316 µM, first compound 1 µM
# [15] = second compound 0.0316 µM, first compound 3.16 µM
# [16] = second compound 0.0316 µM, first compound 10 µM
# [17] = second compound 0.1 µM, first compound 0.316 µM
# [18] = second compound 0.1 µM, first compound 1 µM
# [19] = second compound 0.1 µM, first compound 3.16 µM
# [20] = second compound 0.1 µM, first compound 10 µM
# [21] = second compound 0.316 µM, first compound 0.316 µM
# [22] = second compound 0.316 µM, first compound 1 µM
# [23] = second compound 0.316 µM, first compound 3.16 µM
# [24] = second compound 0.316 µM, first compound 10 µM
# [25] = second compound 1 µM, first compound 0.316 µM
# [26] = second compound 1 µM, first compound 1 µM
# [27] = second compound 1 µM, first compound 3.16 µM
# [28] = second compound 1 µM, first compound 10 µM
# 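Further: spheroids exposed to agents for seven days before luminescence read.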
# 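Wherever viability, T/C is given: luminescent signal used as a stand-in for spheroid viability; percent viability relative to DMSO vehicle control wells taken as 100%.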
smiles,measurement,setting,value
CC(=O)c1c(C)c2cnc(Nc3ccc(N4CCNCC4)cn3)nc2n(C2CCCC2)c1=O + COc1c(OCCCN2CCOCC2)ccc2c3n(c(=NC(=O)c4cnc(N)nc4)nc12)CCN3,IC50,second compound 0.00316 µM,> 0.1 µM
same,IC50,second compound 0.01 µM,> 0.1 µM
same,IC50,second compound 0.0316 µM,> 0.1 µM
same,IC50,second compound 0.1 µM,0.093 µM
same,IC50,second compound 0.316 µM,0.000852 µM
same,IC50,second compound 1 µM,< 0.000316 µM
same,"viability, T/C","second compound 0.00316 µM, first compound 0.000316 µM",99.3%
same,"viability, T/C","second compound 0.00316 µM, first compound 0.001 µM",97.3%
same,"viability, T/C","second compound 0.00316 µM, first compound 0.00316 µM",107%
same,"viability, T/C","second compound 0.00316 µM, first compound 0.01 µM",96.7%
same,"viability, T/C",[1],93%
same,"viability, T/C",[2],108%
same,"viability, T/C","second compound 0.01 µM, first compound 0.000316 µM",104%
same,"viability, T/C","second compound 0.01 µM, first compound 0.001 µM",103%
same,"viability, T/C","second compound 0.01 µM, first compound 0.00316 µM",104%
same,"viability, T/C","second compound 0.01 µM, first compound 0.01 µM",105%
same,"viability, T/C",[3],98.8%
same,"viability, T/C",[4],116%
same,"viability, T/C","second compound 0.0316 µM, first compound 0.000316 µM",90.9%
same,"viability, T/C","second compound 0.0316 µM, first compound 0.001 µM",106%
same,"viability, T/C","second compound 0.0316 µM, first compound 0.00316 µM",86.6%
same,"viability, T/C","second compound 0.0316 µM, first compound 0.01 µM",87.3%
same,"viability, T/C",[5],93.7%
same,"viability, T/C",[6],80.4%
same,"viability, T/C","second compound 0.1 µM, first compound 0.000316 µM",75.1%
same,"viability, T/C","second compound 0.1 µM, first compound 0.001 µM",75.8%
same,"viability, T/C","second compound 0.1 µM, first compound 0.00316 µM",74.4%
same,"viability, T/C","second compound 0.1 µM, first compound 0.01 µM",74%
same,"viability, T/C",[7],70.5%
same,"viability, T/C",[8],48.6%
same,"viability, T/C","second compound 0.316 µM, first compound 0.000316 µM",52.9%
same,"viability, T/C","second compound 0.316 µM, first compound 0.001 µM",46.5%
same,"viability, T/C","second compound 0.316 µM, first compound 0.00316 µM",49.9%
same,"viability, T/C","second compound 0.316 µM, first compound 0.01 µM",40.2%
same,"viability, T/C",[9],35.6%
same,"viability, T/C",[10],26.4%
same,"viability, T/C","second compound 1 µM, first compound 0.000316 µM",27.6%
same,"viability, T/C","second compound 1 µM, first compound 0.001 µM",32%
same,"viability, T/C","second compound 1 µM, first compound 0.00316 µM",28.3%
same,"viability, T/C","second compound 1 µM, first compound 0.01 µM",26.7%
same,"viability, T/C",[11],21.5%
same,"viability, T/C",[12],19.7%
CC1(C)CCC(Nc2ncc(C(F)(F)F)c(-c3c[nH]c4c(P(C)(C)=O)c(C#N)ccc34)n2)CN1 (stereo unspecified) + CC(Nc1ccc2c(c1)OCCn1cc(N3C(=O)OCC3C(F)F)nc1-2)C(N)=O,IC50,second compound 0.00316 µM,5.18 µM
same,IC50,second compound 0.01 µM,5.16 µM
same,IC50,second compound 0.0316 µM,5.28 µM
same,IC50,second compound 0.1 µM,4.79 µM
same,IC50,second compound 0.316 µM,4.54 µM
same,IC50,second compound 1 µM,3.18 µM
same,"viability, T/C",[1],106%
same,"viability, T/C",[2],90.5%
same,"viability, T/C","second compound 0.00316 µM, first compound 0.316 µM",89.4%
same,"viability, T/C","second compound 0.00316 µM, first compound 1 µM",89.6%
same,"viability, T/C","second compound 0.00316 µM, first compound 3.16 µM",85.5%
same,"viability, T/C","second compound 0.00316 µM, first compound 10 µM",2.71%
same,"viability, T/C",[3],104%
same,"viability, T/C",[4],95.6%
same,"viability, T/C","second compound 0.01 µM, first compound 0.316 µM",92.7%
same,"viability, T/C","second compound 0.01 µM, first compound 1 µM",96.3%
same,"viability, T/C","second compound 0.01 µM, first compound 3.16 µM",84.2%
same,"viability, T/C","second compound 0.01 µM, first compound 10 µM",3.61%
same,"viability, T/C",[5],99.4%
same,"viability, T/C",[6],88.7%
same,"viability, T/C",[13],89.4%
same,"viability, T/C",[14],93.5%
same,"viability, T/C",[15],87.8%
same,"viability, T/C",[16],3.03%
same,"viability, T/C",[7],90%
same,"viability, T/C",[8],85.5%
same,"viability, T/C",[17],89.8%
same,"viability, T/C",[18],85.7%
same,"viability, T/C",[19],76.5%
same,"viability, T/C",[20],2.82%
same,"viability, T/C",[9],81.8%
same,"viability, T/C",[10],64.8%
same,"viability, T/C",[21],68.2%
same,"viability, T/C",[22],76.5%
same,"viability, T/C",[23],71.8%
same,"viability, T/C",[24],2.32%
same,"viability, T/C",[11],54.9%
same,"viability, T/C",[12],56.1%
same,"viability, T/C",[25],57%
same,"viability, T/C",[26],53.4%
same,"viability, T/C",[27],50.5%
same,"viability, T/C",[28],2.4%
CC1(C)CCC(CN2CCN(c3ccc(C(=O)NS(=O)(=O)c4ccc(NCC5CCOCC5)c([N+](=O)[O-])c4)c(Oc4cnc5[nH]ccc5c4)c3)CC2)=C(c2ccc(Cl)cc2)C1 + Cc1nc(NC(=O)N2CCCC2C(N)=O)sc1-c1ccnc(C(C)(C)C(F)(F)F)c1,IC50,second compound 0.0316 µM,9.73 µM
same,IC50,second compound 0.1 µM,9.43 µM
same,IC50,second compound 0.316 µM,> 10 µM
same,IC50,second compound 1 µM,> 10 µM
same,IC50,second compound 3.16 µM,8.59 µM
same,IC50,second compound 10 µM,5.3 µM
same,"viability, T/C",[5],106%
same,"viability, T/C",[6],99.3%
same,"viability, T/C",[13],106%
same,"viability, T/C",[14],101%
same,"viability, T/C",[15],119%
same,"viability, T/C",[16],48.7%
same,"viability, T/C",[7],103%
same,"viability, T/C",[8],99.9%
same,"viability, T/C",[17],104%
same,"viability, T/C",[18],107%
same,"viability, T/C",[19],118%
same,"viability, T/C",[20],46.9%
same,"viability, T/C",[9],119%
same,"viability, T/C",[10],104%
same,"viability, T/C",[21],107%
same,"viability, T/C",[22],103%
same,"viability, T/C",[23],116%
same,"viability, T/C",[24],54.6%
same,"viability, T/C",[11],96.2%
same,"viability, T/C",[12],93.8%
same,"viability, T/C",[25],106%
same,"viability, T/C",[26],96.9%
same,"viability, T/C",[27],104%
same,"viability, T/C",[28],53.2%
same,"viability, T/C","second compound 3.16 µM, first compound 0.0316 µM",82.5%
same,"viability, T/C","second compound 3.16 µM, first compound 0.1 µM",91.4%
same,"viability, T/C","second compound 3.16 µM, first compound 0.316 µM",90.8%
same,"viability, T/C","second compound 3.16 µM, first compound 1 µM",81.8%
same,"viability, T/C","second compound 3.16 µM, first compound 3.16 µM",91.3%
same,"viability, T/C","second compound 3.16 µM, first compound 10 µM",44.3%
same,"viability, T/C","second compound 10 µM, first compound 0.0316 µM",69.9%
same,"viability, T/C","second compound 10 µM, first compound 0.1 µM",73.8%
same,"viability, T/C","second compound 10 µM, first compound 0.316 µM",70.1%
same,"viability, T/C","second compound 10 µM, first compound 1 µM",69.7%
same,"viability, T/C","second compound 10 µM, first compound 3.16 µM",63.7%
same,"viability, T/C","second compound 10 µM, first compound 10 µM",33.3%
